Experimental data from ChEMBL document CHEMBL4507259 (2021).

What was measured:
[1] = target: Ephrin type-A receptor 1 (Homo sapiens) (UniProt P21709); conditions: Compound concentration 1000.0 nM
[2] = target: Serine/threonine-protein kinase Nek11 (Homo sapiens) (UniProt Q8NG66); conditions: Compound concentration 1000.0 nM
[3] = target: Mitogen-activated protein kinase kinase kinase 3 (Homo sapiens) (UniProt Q99759); conditions: Compound concentration 1000.0 nM
[4] = target: Ephrin type-A receptor 7 (Homo sapiens) (UniProt Q15375); conditions: Compound concentration 1000.0 nM
[5] = test system: Tyrosine-protein kinase ABL1 (Homo sapiens), P00519 [F317I]; conditions: Compound concentration 1000.0 nM
[6] = test system: Tyrosine-protein kinase ABL1 (Homo sapiens), P00519 [F317L]; conditions: Compound concentration 1000.0 nM
[7] = target: Cyclin-dependent kinase 2 homolog (Plasmodium falciparum (isolate 3D7)) (UniProt P61075); conditions: Compound concentration 1000.0 nM
[8] = target: Mitogen-activated protein kinase 14 (Homo sapiens) (UniProt Q16539); conditions: Compound concentration 1000.0 nM
[9] = target: Inhibitor of nuclear factor kappa-B kinase subunit epsilon (Homo sapiens) (UniProt Q14164); conditions: Compound concentration 1000.0 nM
[10] = target: Serine/threonine-protein kinase 24 (Homo sapiens) (UniProt Q9Y6E0); conditions: Compound concentration 1000.0 nM
[11] = target: Serine/threonine-protein kinase ULK3 (Homo sapiens) (UniProt Q6PHR2); conditions: Compound concentration 1000.0 nM
[12] = target: T1, Muscarinic acetylcholine receptor M4 (Homo sapiens) (UniProt P08173); test: M4 (h) CEREP ligand profiling; conditions: filed as antagonist, Compound concentration 10.0 uM
T1 sequence (whole entry): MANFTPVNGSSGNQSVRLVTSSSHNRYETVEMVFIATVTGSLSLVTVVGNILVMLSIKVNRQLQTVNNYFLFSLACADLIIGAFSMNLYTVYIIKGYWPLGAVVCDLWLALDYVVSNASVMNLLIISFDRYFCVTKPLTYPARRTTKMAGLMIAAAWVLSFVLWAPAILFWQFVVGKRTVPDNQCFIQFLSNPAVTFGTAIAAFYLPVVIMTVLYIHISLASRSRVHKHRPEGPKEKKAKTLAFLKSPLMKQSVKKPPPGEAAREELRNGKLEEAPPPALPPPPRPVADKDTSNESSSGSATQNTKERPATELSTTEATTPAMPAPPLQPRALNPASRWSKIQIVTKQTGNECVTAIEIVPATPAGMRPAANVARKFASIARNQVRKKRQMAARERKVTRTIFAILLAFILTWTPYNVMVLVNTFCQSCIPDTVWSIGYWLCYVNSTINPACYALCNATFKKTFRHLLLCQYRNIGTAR

[13] = target: Mitogen-activated protein kinase 12 (Homo sapiens) (UniProt P53778); conditions: Compound concentration 1000.0 nM
[14] = target: Tyrosine-protein kinase SYK (Homo sapiens) (UniProt P43405); conditions: Compound concentration 1000.0 nM
[15] = test system: Tyrosine-protein kinase ABL1 (Homo sapiens), P00519 [Q252H]; conditions: Compound concentration 1000.0 nM
[16] = target: Type-1 angiotensin II receptor (Homo sapiens) (UniProt P30556); test: AT1 (h) CEREP ligand profiling; conditions: filed as antagonist, Compound concentration 10.0 uM
[17] = target: Tyrosine-protein kinase Yes (Homo sapiens) (UniProt P07947); conditions: Compound concentration 1000.0 nM
[18] = test system: Phosphatidylinositol 4,5-bisphosphate 3-kinase catalytic subunit alpha isoform (Homo sapiens), P42336 [E545K]; conditions: Compound concentration 1000.0 nM
[19] = target: Receptor tyrosine-protein kinase erbB-4 (Homo sapiens) (UniProt Q15303); conditions: Compound concentration 1000.0 nM
[20] = target: Ephrin type-B receptor 4 (Homo sapiens) (UniProt P54760); conditions: Compound concentration 1000.0 nM
[21] = test system: Tyrosine-protein kinase ABL1 (Homo sapiens), P00519 [Y253F]; conditions: Compound concentration 1000.0 nM
[22] = target: Dual specificity mitogen-activated protein kinase kinase 4 (Homo sapiens) (UniProt P45985); conditions: Compound concentration 1000.0 nM
[23] = target: Dual specificity tyrosine-phosphorylation-regulated kinase 1B (Homo sapiens) (UniProt Q9Y463); conditions: Compound concentration 1000.0 nM
[24] = target: Serine/threonine-protein kinase BRSK2 (Homo sapiens) (UniProt Q8IWQ3); conditions: Compound concentration 1000.0 nM
[25] = test system: ALK tyrosine kinase receptor (Homo sapiens), Q9UM73 [C1156Y]; conditions: Compound concentration 1000.0 nM
[26] = target: RAC-alpha serine/threonine-protein kinase (Homo sapiens) (UniProt P31749); conditions: Compound concentration 1000.0 nM
[27] = target: Ribosomal protein S6 kinase alpha-1 (Homo sapiens) (UniProt Q15418); conditions: Compound concentration 1000.0 nM
[28] = target: Cyclin-dependent kinase 19 (Homo sapiens) (UniProt Q9BWU1); conditions: Compound concentration 1000.0 nM
[29] = test system: Tyrosine-protein kinase ABL1 (Homo sapiens), P00519 [E255K]; conditions: Compound concentration 1000.0 nM
[30] = target: 5-hydroxytryptamine receptor 4 (Homo sapiens) (UniProt Q13639); test: 5-HT4e (h) CEREP ligand profiling; conditions: filed as antagonist, Compound concentration 10.0 uM
[31] = target: T2, 5-hydroxytryptamine receptor 1A (Homo sapiens) (UniProt P08908); conditions: Compound concentration 10.0 uM
T2 sequence (whole entry): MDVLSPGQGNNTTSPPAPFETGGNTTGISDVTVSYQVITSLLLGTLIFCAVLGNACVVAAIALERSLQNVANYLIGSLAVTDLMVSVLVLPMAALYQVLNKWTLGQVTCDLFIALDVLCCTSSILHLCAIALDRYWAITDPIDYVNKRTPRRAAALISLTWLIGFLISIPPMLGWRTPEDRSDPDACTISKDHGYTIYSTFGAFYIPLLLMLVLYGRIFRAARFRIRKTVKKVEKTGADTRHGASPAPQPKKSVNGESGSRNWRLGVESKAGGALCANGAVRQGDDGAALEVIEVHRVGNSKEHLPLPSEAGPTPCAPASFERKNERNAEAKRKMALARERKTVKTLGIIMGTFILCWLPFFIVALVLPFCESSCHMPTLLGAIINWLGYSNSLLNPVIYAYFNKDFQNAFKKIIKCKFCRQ

[32] = target: Serine/threonine-protein kinase PAK 3 (Homo sapiens) (UniProt O75914); conditions: Compound concentration 1000.0 nM
Chain of Serine/threonine-protein kinase PAK 3 (Homo sapiens) (O75914 whole entry, looked up): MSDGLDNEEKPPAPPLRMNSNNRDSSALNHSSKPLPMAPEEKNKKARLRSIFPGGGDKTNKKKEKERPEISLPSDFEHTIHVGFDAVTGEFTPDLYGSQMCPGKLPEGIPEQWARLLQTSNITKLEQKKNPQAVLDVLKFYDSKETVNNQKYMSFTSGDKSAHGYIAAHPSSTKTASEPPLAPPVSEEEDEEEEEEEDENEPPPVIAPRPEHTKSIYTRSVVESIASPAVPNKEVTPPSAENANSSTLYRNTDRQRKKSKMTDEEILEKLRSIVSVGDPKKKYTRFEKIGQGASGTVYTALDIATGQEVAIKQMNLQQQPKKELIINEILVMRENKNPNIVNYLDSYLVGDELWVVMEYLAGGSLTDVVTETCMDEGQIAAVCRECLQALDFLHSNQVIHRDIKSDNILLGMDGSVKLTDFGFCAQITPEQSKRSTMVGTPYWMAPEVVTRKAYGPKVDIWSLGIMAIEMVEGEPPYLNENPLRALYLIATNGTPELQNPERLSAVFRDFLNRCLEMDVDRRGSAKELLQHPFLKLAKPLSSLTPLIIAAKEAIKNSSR

Chain of Receptor tyrosine-protein kinase erbB-4 (Homo sapiens) (Q15303 whole entry): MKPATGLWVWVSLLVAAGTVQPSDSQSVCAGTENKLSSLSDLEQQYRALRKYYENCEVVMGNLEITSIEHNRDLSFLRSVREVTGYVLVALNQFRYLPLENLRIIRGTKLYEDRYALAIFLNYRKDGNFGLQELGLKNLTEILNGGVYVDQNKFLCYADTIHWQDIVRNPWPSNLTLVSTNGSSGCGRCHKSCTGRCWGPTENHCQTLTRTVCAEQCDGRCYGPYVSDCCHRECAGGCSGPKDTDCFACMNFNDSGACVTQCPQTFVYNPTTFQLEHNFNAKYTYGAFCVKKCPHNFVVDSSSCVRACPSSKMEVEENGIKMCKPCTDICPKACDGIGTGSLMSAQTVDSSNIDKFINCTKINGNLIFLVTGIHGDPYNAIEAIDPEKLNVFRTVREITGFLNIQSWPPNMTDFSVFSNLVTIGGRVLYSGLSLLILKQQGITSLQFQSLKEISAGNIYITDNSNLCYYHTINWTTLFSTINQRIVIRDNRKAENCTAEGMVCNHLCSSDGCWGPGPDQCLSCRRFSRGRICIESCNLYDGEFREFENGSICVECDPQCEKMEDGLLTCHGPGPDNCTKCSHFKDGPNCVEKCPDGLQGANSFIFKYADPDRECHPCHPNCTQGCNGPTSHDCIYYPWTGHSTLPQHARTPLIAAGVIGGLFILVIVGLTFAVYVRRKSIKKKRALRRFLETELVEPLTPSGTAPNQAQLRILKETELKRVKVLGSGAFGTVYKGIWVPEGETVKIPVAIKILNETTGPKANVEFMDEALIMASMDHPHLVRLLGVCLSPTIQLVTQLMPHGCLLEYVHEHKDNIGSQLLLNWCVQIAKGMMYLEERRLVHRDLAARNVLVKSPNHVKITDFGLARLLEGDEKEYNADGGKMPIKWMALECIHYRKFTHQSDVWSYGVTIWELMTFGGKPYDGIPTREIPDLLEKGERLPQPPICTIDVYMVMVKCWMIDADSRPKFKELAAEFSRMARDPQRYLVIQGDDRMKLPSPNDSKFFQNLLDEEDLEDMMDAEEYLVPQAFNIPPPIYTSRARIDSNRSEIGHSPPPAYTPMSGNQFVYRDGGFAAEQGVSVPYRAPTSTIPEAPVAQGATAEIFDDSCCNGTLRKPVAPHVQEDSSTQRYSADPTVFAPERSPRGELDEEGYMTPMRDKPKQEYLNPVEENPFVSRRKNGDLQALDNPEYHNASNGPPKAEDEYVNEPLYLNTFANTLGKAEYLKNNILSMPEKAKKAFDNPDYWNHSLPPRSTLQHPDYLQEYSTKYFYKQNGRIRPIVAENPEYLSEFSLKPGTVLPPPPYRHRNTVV
Chain of Phosphatidylinositol 4,5-bisphosphate 3-kinase catalytic subunit alpha isoform (Homo sapiens), P42336 [E545K] (P42336 whole entry E545K, canonical isoform): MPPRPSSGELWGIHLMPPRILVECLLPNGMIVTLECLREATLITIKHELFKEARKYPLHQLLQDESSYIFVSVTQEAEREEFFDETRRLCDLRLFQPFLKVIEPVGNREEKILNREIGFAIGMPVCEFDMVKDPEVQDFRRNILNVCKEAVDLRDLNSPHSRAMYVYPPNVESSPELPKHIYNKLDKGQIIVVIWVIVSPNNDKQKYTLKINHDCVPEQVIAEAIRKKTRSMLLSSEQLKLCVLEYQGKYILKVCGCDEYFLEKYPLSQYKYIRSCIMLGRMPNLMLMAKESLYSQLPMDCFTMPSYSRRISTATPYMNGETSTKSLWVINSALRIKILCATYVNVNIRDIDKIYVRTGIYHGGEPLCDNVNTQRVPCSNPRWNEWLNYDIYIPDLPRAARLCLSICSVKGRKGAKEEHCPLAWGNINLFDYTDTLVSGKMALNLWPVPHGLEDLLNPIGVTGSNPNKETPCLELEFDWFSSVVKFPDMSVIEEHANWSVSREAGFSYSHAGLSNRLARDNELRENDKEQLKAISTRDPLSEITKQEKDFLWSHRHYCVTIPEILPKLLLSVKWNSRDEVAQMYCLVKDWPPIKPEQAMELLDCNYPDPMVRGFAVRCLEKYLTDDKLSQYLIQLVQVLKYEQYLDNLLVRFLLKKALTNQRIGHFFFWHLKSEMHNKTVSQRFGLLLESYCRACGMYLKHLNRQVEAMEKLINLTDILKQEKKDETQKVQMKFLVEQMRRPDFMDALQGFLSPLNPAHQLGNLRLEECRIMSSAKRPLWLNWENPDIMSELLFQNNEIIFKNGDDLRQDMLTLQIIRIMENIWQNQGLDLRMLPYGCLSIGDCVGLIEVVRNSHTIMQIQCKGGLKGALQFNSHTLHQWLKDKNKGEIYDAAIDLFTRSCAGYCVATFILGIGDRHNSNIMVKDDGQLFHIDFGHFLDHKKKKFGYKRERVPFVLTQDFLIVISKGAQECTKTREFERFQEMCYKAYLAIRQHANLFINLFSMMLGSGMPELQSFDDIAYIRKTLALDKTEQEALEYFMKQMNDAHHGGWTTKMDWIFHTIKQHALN
Chain of Dual specificity tyrosine-phosphorylation-regulated kinase 1B (Homo sapiens) (Q9Y463 whole entry, looked up): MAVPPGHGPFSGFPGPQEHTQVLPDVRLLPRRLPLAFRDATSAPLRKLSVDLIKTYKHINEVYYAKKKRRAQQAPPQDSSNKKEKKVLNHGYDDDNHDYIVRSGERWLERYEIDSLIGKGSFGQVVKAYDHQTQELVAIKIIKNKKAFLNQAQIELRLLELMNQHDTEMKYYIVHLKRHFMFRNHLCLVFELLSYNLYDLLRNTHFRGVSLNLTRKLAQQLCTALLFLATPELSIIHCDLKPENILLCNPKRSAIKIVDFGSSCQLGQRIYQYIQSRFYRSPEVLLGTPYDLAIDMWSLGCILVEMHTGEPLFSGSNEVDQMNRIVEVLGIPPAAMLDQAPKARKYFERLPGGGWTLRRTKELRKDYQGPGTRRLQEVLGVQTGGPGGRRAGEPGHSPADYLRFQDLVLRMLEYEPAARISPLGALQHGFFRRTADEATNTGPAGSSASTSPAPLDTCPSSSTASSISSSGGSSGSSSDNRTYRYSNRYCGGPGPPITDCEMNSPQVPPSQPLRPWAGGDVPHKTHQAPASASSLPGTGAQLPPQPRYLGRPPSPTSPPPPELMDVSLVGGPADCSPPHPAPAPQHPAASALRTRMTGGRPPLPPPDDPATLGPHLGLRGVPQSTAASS
Chain of RAC-alpha serine/threonine-protein kinase (Homo sapiens) (P31749 whole entry): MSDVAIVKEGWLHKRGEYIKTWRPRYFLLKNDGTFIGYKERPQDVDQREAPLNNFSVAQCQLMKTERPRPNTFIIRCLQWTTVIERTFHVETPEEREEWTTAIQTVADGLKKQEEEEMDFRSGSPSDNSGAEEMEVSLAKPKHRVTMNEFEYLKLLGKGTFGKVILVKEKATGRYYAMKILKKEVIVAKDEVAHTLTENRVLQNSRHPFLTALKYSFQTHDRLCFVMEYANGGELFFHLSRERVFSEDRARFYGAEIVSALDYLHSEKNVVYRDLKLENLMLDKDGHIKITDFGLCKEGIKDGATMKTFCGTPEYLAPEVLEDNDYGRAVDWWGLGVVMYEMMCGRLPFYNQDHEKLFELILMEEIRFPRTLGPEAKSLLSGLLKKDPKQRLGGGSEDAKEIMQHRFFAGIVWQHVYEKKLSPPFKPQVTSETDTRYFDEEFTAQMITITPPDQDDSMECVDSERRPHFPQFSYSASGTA
Chain of Serine/threonine-protein kinase BRSK2 (Homo sapiens) (Q8IWQ3 whole entry): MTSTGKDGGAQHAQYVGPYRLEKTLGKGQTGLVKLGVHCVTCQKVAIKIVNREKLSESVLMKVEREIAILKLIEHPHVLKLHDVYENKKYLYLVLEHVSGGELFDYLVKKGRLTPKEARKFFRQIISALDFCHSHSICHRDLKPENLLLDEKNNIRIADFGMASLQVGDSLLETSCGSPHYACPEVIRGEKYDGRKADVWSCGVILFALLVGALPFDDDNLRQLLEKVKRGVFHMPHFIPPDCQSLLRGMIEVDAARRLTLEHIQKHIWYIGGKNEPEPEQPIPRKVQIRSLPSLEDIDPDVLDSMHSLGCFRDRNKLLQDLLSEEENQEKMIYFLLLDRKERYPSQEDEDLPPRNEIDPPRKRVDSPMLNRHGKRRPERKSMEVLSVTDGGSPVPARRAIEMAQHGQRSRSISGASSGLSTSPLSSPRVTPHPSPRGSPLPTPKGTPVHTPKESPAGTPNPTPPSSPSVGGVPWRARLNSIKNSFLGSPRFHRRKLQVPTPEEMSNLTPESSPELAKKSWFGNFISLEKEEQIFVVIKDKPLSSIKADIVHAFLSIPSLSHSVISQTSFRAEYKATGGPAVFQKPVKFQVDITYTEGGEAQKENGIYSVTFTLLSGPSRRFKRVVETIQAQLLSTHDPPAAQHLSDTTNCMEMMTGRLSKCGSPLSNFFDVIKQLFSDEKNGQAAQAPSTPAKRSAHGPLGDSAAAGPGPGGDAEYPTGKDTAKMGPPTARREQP
Chain of Cyclin-dependent kinase 2 homolog (Plasmodium falciparum (isolate 3D7)) (P61075 whole entry): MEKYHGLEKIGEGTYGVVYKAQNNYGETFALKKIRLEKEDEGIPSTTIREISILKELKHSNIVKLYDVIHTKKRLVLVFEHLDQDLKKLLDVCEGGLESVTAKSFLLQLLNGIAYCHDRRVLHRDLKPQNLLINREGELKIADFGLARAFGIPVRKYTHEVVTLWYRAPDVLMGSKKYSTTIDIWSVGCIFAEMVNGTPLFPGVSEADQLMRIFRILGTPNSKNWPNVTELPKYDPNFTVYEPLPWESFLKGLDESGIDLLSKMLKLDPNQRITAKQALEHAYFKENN

CNC(=O)Nc1ccc2c(c1)[C@@]1(CC2)OC(=O)N(CC(=O)N(Cc2ccc(F)cc2)[C@@H](C)C(F)(F)F)C1=O [A-486]
inactive: residual activity [1] 100% | residual activity [2] 84% | residual activity [3] 75% | residual activity [4] 100% | residual activity [5] 78% | residual activity [6] 66% | residual activity [7] 95% | residual activity [8] 100% | residual activity [9] 75% | residual activity [10] 100% | residual activity [11] 55% | inhibition [12] 6% | residual activity [13] 96% | residual activity [14] 82% | residual activity [15] 88% | inhibition [16] 17% | residual activity [17] 85% | residual activity [18] 76% | residual activity [19] 100% | residual activity [20] 91% | residual activity [21] 100% | residual activity [22] 95% | residual activity [23] 100% | residual activity [24] 90% | residual activity [25] 100% | residual activity [26] 77% | residual activity [27] 96% | residual activity [28] 100% | residual activity [29] 100% | inhibition [30] 9% | inhibition [31] 4.17% | residual activity [32] 91%

CNC(=O)Nc1ccc2c(c1)CC[C@@]21OC(=O)N(CC(=O)N(Cc2ccc(F)cc2)[C@@H](C)C(F)(F)F)C1=O [A-485]
inactive: residual activity [1] 88% | residual activity [2] 91% | residual activity [3] 86% | residual activity [4] 88% | residual activity [5] 71% | residual activity [6] 64% | residual activity [7] 91% | residual activity [8] 100% | residual activity [9] 51% | residual activity [10] 90% | residual activity [11] 90% | inhibition [12] 14% | residual activity [13] 63% | residual activity [14] 70% | residual activity [15] 72% | inhibition [16] 18% | residual activity [17] 76% | residual activity [18] 80% | residual activity [19] 100% | residual activity [20] 80% | residual activity [21] 81% | residual activity [22] 100% | residual activity [23] 81% | residual activity [24] 70% | residual activity [25] 88% | residual activity [26] 91% | residual activity [27] 86% | residual activity [28] 96% | residual activity [29] 75% | inhibition [30] 10% | inhibition [31] 6.87% | residual activity [32] 91%
